Test results taken from patent publication US20130039956A1, “USE OF NITROCARBOXYLIC ACIDS FOR THE TREATMENT, DIAGNOSIS AND PROPHYLAXIS OF AGGRESSIVE HEALING PATTERNS” (priority 2010, published 2013).

Legend:
fibroblasts [1] = assay: Mechanical alteration of fibroblasts (cyclic stretching of coated polypropylene meshes); format: cell-based; settings: cyclic stretching, day 7, day 21, 8 weeks, compared with native FA
Source text: In order to simulate the effects of chronic shear forces on a healing wound, an in vitro model was established. A flat balloon was placed on the bottom of a Petri dish. A silicone sheet was placed above and sealed with the side of the Petri dish. Then a 3 mm agar layer was casted on top of the sheet. Commercially available polypropylene meshes for hernia repair (microporous mesh, a low-weight and macroporous mesh with absorbable polyglactin filaments, and a heavy-weight and microporous mesh) were placed on the agar plates and fixed at 4 points at the side of the Petri dish. This setting enabled stretching of the meshes by filling the balloons with air, which was performed at 10-second intervals using an automated pumping device. The model can be used to evaluate the effect of three-dimensional (3D) shear forces on cell growth during cell cultivation. Preincubated suspensions of fibroblasts (1.5×10(5) cells) in a culture medium (10% FCS) were added to the culture dishes and allowed to grow for 48 hours. Cyclic stretching was started at day 3. Histological analysis was performed from the central portions of the meshes at day 7, at day 21, and after 8 weeks. The scaffolds were detached from the culture plate and carefully rinsed. Then, they were cut into pieces, casted, and further processed for standard histology and immunohistology. Care was taken to achieve a cutting plane that was vertical to the surface plane of the meshes. Histological analysis evaluated the cellularity, the content of extra cellular matrix (ECM), and the magnitude of protein synthesis. Meshes were dip-coated with native and nitro fatty acids or left blank in the same manner as in example 1. The uncoated meshes served as controls.

[2] = tested on: human umbellical endothelial cells (HUVEC); assay: Adhesion, propagation and growth of endothelial cells on coated polystyrene films; format: cell-based; settings: days 3, 7, 14, compared with native FA
Method: Polystyrene scaffolds were prepared and pretreated in the same manner as performed in example 1 by using the same nitrocarboxylic acids as listed in table 1. The film samples were placed in a culture dish containing a gel matrix, in which human umbellical endothelial cells (HUVEC) had been allowed to grow to confluence. The culture medium consisted of 5% FCS, which was replaced every 5 days. Cultivation was performed according to standard conditions. Films were evaluated at days 3, 7, and 14 after careful extraction from the culture dishes, rinsing with saline solution, and staining with methylene blue. Using a reflected light microscope, the films were immediately examined to evaluate the following: Propagation of cells to the film center, cell confluidity, multilayer formation, and cell shape.

human dermal fibroblasts = assay: Extra cellular matrix production (collagen-1) in response to TGF-β2 in dermal fibroblasts; format: cell-based; settings: 10 and 50 μmol, TGF-β2 25 ng/ml, 48 hours; compared with native FA
Method: In order to determine whether PPRA gamma stimulation due to nitrated fatty acids plays a role in the inventive inhibition of an aggressive healing pattern to an irritating stimulus, human dermal fibroblasts were investigated. A dominant-negative PPAR gamma mutant (L466A) cell clone was generated by polymerase chain reaction-based site-directed mutagenesis. Presence of PPAR gamma or absence was investigated using a PPAR gamma antibody reaction which was determined using an enhanced chemiluminescence detection system. Furthermore, one cell series was incubated with a selective irreversible PPAR gamma ligand (GW9662, 1 μmol), which effectively blocks PPAR gamma receptors.
Sequential cultivation of human dermal fibroblasts was performed in EMEM containing 5 mM glucose supplemented with 10% FCS under standard cultivation conditions. Cells were allowed to grow to confluence in a 96-well plate. Wild-type fibroblasts and PPAR gamma deficient fibroblasts were investigated by a set-up of 2×10 sample sets comprising: (1) blank control; (2) stimulation control; (3) preincubation with the PPAR gamma antagonist GW9662 (Cayman Chemical); (4) preincubation with the PPAR agonist troglitazone (25 μmol). In 2×4 sample sets, native fatty acids were added to the medium to achieve a final concentration of 10 and 50 μmol, respectively; in another 2×4 sets the nitrated fatty acids were added to the medium in the same concentration, while 2×2 sets served as controls. In 10 of the sets, TGF-β2 was added to the culture medium at a concentration of 25 ng/ml. Cultivation was continued for 48 hours and then processed in order to analyze collagen-1 as measured by enhanced chemiluminescence detection of immuncomplexes.

adult rats = assay: Fibrogenesis after traumatic and thermal tissue damage in dermal wound healing in vivo; design: species or system rat; settings: 100 micromol ethanolic solution on wound margins, 8 weeks, compared with native FA
Source text: In order to determine the effects of nitrated fatty acids on fibrogenesis in response to traumatic and thermal tissue damage, an in vivo rat model was investigated. Paravertebral scalpel incision (two on each side) of approximately 1 cm in length and a depth of 1 mm were made in 12 anesthetized adult rats (150-200 g) of either sex after disinfection. Bleeding was stopped by manual compression. The entire length of the wound margins of one incision at each side were additionally cauterized using a 3-mm ball electrode connected to a DRE ASG-120 electrosurgical generator. Wound margins of one side were then covered with a sterile ethanolic 0.9% saline solution, or with a sterile ethanolic solution of the fatty acids (100 micromol), or with a sterile ethanolic solution of the nitrated fatty acids (100 micromol) using a sterile brush. A 1×10 mm cotton string that was bathed in the ethanolic solution containing 0.9% saline, native fatty acid or nitrated fatty acids was placed upon the incision site that had been closed by manual adaptation. The adaptation result and the cotton strings were fixed by an adhesive film. The animals were housed and fed according to institutional standards. The wound films were carefully removed after 2 weeks. Animals were euthanized after 8 weeks. The skin wounds were harvested, including the epidermis, dermis, and subcutaneous loose tissue with the surrounding normal tissue. The removed tissues were fixed in formalin and then embedded in paraffin. The cutting plane was vertical to the longitudinal axis of the former incisions. Slices (4-6 μm) were stained with H&E and Masson trichrome staining to evaluate the amount and density of collagen.

fibroblasts [3] = assay: Biofouling and cell adherence at prosthetic materials (dip-coated polymer films); format: cell-based; settings: compared with native FA (control)
Method: Polymer scaffolds (polyurethane, polyvinylchloride, polylactate) which are used as implant materials were investigated. Solid and porous (pore sizes ranging from 50 to 150 micrometer) films of pure polymer scaffolds were cut into pieces (5×5 mm). After cleaning with NaOH and ethanol, they were dip-coated with native and nitrocarboxylic acids. Dip-coated pieces were suspended in a tube filled with argon and heated at 60° C. for 24 hours in the dark. Film pieces with and without coating were placed in a borosilicate glass tube that allowed fixation of two margins of the film pieces at the wall of the glass tube, thus, enabling a upright standing position in the center of the tube. Tubes were filled with various solutions for 12 hours. Solutions consisted of the following: 0.9% saline; 2% bovine albumin; 2% bovine albumin with addition of either fibronectin or laminin; and bovine serum. At the end of the exposure time, tubes were gently washed twice with 0.9% saline solution. One set of films was analyzed for protein absorption using a specific antibody staining method. An identically prepared set of films was further processed for cell cultures. A suspension containing preincubated fibroblasts in 1% FCS was added to the film-containing tubes. The tubes were tilted and adjusted in such a position so that the films were in a vertical orientation within the suspension. […] Tubes had two openings at the upper half (of the tilt tubes) that allowed free exchange of the atmosphere above the solution with the surrounding atmosphere. Sets were incubated at standard conditions for 24, 48, and 96 hours, respectively. Thereafter, films were carefully removed and rinsed with 0.9% saline solution. The cellularity and the shape of the cells on both sides of the films were evaluated after staining (Gimsa) using a reflected light microscope.
Also: key: 0: not superior to native FA (control); +: Superior to native FA; ++: superior to both; +++: outstanding effect.

| Molecule | Relative effect on fibroblasts under mechanical alteration (fibroblasts [1]) | Relative differences: effect on adhesion, propagation and growth of endothelial cells [2] | Relative effect on collagen-1 production in response to TGF-β2 (human dermal fibroblasts) | Relative effect on fibrogenesis (scar formation) in dermal wound healing (adult rats) | Relative differences: effect on biofouling and cell adherence (fibroblasts [3]) |
| --- | --- | --- | --- | --- | --- |
| 5-nitro-eicosatrienoic acid [compound 4] | + | + | + | + | + |
| 9,10-nitro-cis-oleic acid [compound 10] | ++ | ++ | ++ | ++ | +++ |
| 9,10-nitro-trans-oleic acid [compound 15] | + | + | + | + | ++ |
| CCCCCCCC/C=C(/CCCCCCCC(=O)O)[N+](=O)[O-] [compound 1, 9-nitro cis-oleic acid] | +++ | ++ | +++ | ++ | ++ |
| CCCCC/C=C\C/C(=C\CCCCCCCC(=O)O)[N+](=O)[O-] [compound 2, 10-nitro-cis-linoleic acid] | +++ | +++ | ++ | +++ | ++ |
| CCCCCCCC/C(=C/CCCCCCCC(=O)O)[N+](=O)[O-] [compound 3, 10-nitro-cis-oleic acid] | ++ | ++ | ++ | ++ | ++ |
| CCCCC/C=C(/C/C=C\C/C=C\C/C=C\C/C=C\CCC(=O)O)[N+](=O)[O-] [compound 5, 16-nitro-all-cis-4,7,10,13,16-docosapentaenoic acid] | ++ | ++ | + | 0 | ++ |
| CC/C=C\C/C=C\C/C=C(/CCCCCCCC(=O)O)[N+](=O)[O-] [compound 6, 9-nitro-all-cis-9-12,15-octadecatrienoic acid] | ++ | ++ | ++ | ++ | ++ |
| CC/C=C\C/C=C\C/C(=C/C/C=C\C/C=C\CCCCCC(=O)O)[N+](=O)[O-] [compound 7, 14-nitro-all-cis-7,10,13,16,19-docosapentaenoic acid] | + | + | + | 0 | ++ |
| CCCCCCCC/C=C(/CCCCCCCCCCCCCC(=O)O)[N+](=O)[O-] [compound 8, 15-nitro-cis-15-tetracosenoic acid] | + | + | 0 | + | + |
| CCCCCCCC/C=C(\CCCCCCCC(=O)O)[N+](=O)[O-] [compound 9, 9-nitro-trans-oleic acid] | + | + | + | + | + |
| CCCCCCCCCCC/C=C(/CCCCC(=O)O)[N+](=O)[O-] [compound 21, 6-nitro-cis-6-octadecenoic acid] | + | 0 | ++ | ++ | – |
